# Test results from patent publication US12383545B1, “Treatment of migraine” (priority 2018, dated 2025).
# System: participants with episodic migraine
# Experiment: Study A: Activity Impairment in Migraine-Diary (AIM-D) PDA and PI domain scores
# Assay type: in vivo, human
# Conditions: for AIM-D Performance of Daily Activities domain score, LSMD vs. placebo (95% CI) / AIM-D Physical Impairment domain score, LSMD vs. placebo (95% CI) / AIM-D Performance of Daily Activities domain score, change from baseline, mean (SD) / AIM-D Physical Impairment domain score, LS mean change (SE): across 12 weeks; for AIM-D Performance of Daily Activities domain score, change from baseline, mean (SD) / AIM-D Physical Impairment domain score, LS mean change (SE) / AIM-D Performance of Daily Activities domain score, Month 1-3, mean (SD): mITT; for AIM-D Performance of Daily Activities domain score, Month 1-3, mean (SD): average across 12-week treatment period
# Source text: The Activity in Migraine Diary (AIM-D) evaluates the impact of migraine on the performance of daily activities and physical impairment using an electronic daily diary. In particular, the AIM-D is comprised of two domains that evaluate Performance of Daily Activities (PDA) and Physical Impairment (PI). Assessed items for the AIM-D PDA domain include household chores, errands, leisure activities at home, social or leisure activities outside the home, strenuous physical activities, concentration, and thinking clearly. Assessed items for the AIM-D PI Domain include walking, moving one's body, bending forward, and moving one's head. Response options for each item range from “not difficult at all” to “I could not do it at all” on a 6-point rating scale. The AIM-D domain scores are scaled from 0-100, with higher scores indicating greater impact of migraine, and reductions from baseline in scores indicate improvement. See Cala et al., The Activity Impairment in Migraine-Diary (AIM-D): A Novel Migraine-Specific Patient-Reported Outcome Measure to Assess Functioning Based on Activity Impairment in Episodic and Chronic Migraine Patients, MTIS2018-005 (Sep. 5, 2018).
# A secondary endpoint evaluated the change from baseline in mean monthly performance of daily activities domain score of the AIM-D across the 12-week treatment period. Another secondary endpoint evaluated the change from baseline in mean monthly physical impairment domain score of the AIM-D across the 12-week treatment period. The Activity Impairment in Migraine-Diary (AIM-D) is an 11-item daily diary that is comprised of two domains that evaluate Performance of Daily Activities (PDA; 7 items) and Physical Impairment (PI; 4 items). See Cala et al., “The Activity Impairment in Migraine Diary (AIM-D): A novel migraine-specific patient-reported outcome measure to assess functioning based on activity impairment in episodic and chronic migraine patients”, Cephalalgia 2018; 38:1-115, which is incorporated by reference herein in its entirety. In particular, the AIM-D assesses the impact of migraine on the performance of daily activities and physical impairment using a 6-point rating scale ranging from “Not difficult at all,” “A little difficult,” “Somewhat difficult,” “Very Difficult,” “Extremely Difficult”, and “I could not do it at all.” Items assessed for the AIM-D PDA domain included household chores, errands, leisure activities at home, social or leisure activities outside the home, strenuous physical activities, concentration, and thinking clearly. Items assessed for the AIM-D PI Domain included walking, moving body, bending forward, and moving head. Raw domain scores are recalled to a 0 to 100 scale, where higher scores indicate greater impact of migraine, and reductions from baseline in scores indicate improvement. The AIM-D was collected daily via an electronic diary with the same set of questions administered in headache (HA) and non-headache (NHA) versions. Monthly domain scores are calculated by summing the non-missing daily domain scores (HA and NHA days combined) and dividing the number of non-missing daily scores. The secondary endpoints for AIM-D PDA and PI domain scores were evaluated as change from baseline in mean monthly PDA or PI domain scores of the AIM-D across the 12-week treatment period.
smiles,measurement,setting,value
C[C@@H]1[C@H](c2c(F)ccc(F)c2F)C[C@H](NC(=O)c2cnc3c(c2)C[C@@]2(C3)C(=O)Nc3ncccc32)C(=O)N1CC(F)(F)F [atogepant],"AIM-D Performance of Daily Activities domain score, LSMD vs. placebo (95% CI)",10 mg QD,−1.19
same,"AIM-D Physical Impairment domain score, LSMD vs. placebo (95% CI)",10 mg QD,−1.08
same,"AIM-D Performance of Daily Activities domain score, change from baseline, mean (SD)",10 mg QD,−7.0
same,"AIM-D Physical Impairment domain score, LS mean change (SE)",10 mg QD,−5.11
same,"AIM-D Performance of Daily Activities domain score, Month 1-3, mean (SD)",10 mg QD,8.6
same,"AIM-D Performance of Daily Activities domain score, LSMD vs. placebo (95% CI)",30 mg QD,−2.54
same,"AIM-D Physical Impairment domain score, LSMD vs. placebo (95% CI)",30 mg QD,−1.99
same,"AIM-D Performance of Daily Activities domain score, change from baseline, mean (SD)",30 mg QD,−8.9
same,"AIM-D Physical Impairment domain score, LS mean change (SE)",30 mg QD,−6.02
same,"AIM-D Performance of Daily Activities domain score, Month 1-3, mean (SD)",30 mg QD,8.0
same,"AIM-D Performance of Daily Activities domain score, LSMD vs. placebo (95% CI)",60 mg QD,−3.32
same,"AIM-D Physical Impairment domain score, LSMD vs. placebo (95% CI)",60 mg QD,−2.46
same,"AIM-D Performance of Daily Activities domain score, change from baseline, mean (SD)",60 mg QD,−9.2
same,"AIM-D Physical Impairment domain score, LS mean change (SE)",60 mg QD,−6.49
same,"AIM-D Performance of Daily Activities domain score, Month 1-3, mean (SD)",60 mg QD,6.6
